Data taken from ChEMBL document CHEMBL5584314, “Identification of an m6A Natural Inhibitor, Lobeline, That Reverses Lenvatinib Resistance in Hepatocellular Tumors” (J Nat Prod, 2024).
Activity calls are given as the source filed them. No cut-off for these calls is given here.

How the values were obtained:
[1] = system: Lenvatinib-resistant Huh7/Len; assay: Anticancer activity against human Lenvatinib-resistant Huh7/Len cells assessed as increase in m6A modification in coding region by MeRIP-m6A -sequencing analysis; format: functional, cell-based
[2] = system: Lenvatinib-resistant Huh7/Len; assay: Anticancer activity against human Lenvatinib-resistant Huh7/Len cells assessed as increase in GGA motif at m6A site by MeRIP-m6A -sequencing analysis; format: functional, cell-based
[3] = biological target: N6-adenosine-methyltransferase catalytic subunit (Homo sapiens) (UniProt Q86U44); assay: Inhibition of METTL3 in human Huh-7 cells assessed as down regulation of m6A RNA level at 2 uM incubated for 72 hrs by Dot blot assay; format: cell-based
N6-adenosine-methyltransferase catalytic subunit (Homo sapiens), sequence (Q86U44 whole entry): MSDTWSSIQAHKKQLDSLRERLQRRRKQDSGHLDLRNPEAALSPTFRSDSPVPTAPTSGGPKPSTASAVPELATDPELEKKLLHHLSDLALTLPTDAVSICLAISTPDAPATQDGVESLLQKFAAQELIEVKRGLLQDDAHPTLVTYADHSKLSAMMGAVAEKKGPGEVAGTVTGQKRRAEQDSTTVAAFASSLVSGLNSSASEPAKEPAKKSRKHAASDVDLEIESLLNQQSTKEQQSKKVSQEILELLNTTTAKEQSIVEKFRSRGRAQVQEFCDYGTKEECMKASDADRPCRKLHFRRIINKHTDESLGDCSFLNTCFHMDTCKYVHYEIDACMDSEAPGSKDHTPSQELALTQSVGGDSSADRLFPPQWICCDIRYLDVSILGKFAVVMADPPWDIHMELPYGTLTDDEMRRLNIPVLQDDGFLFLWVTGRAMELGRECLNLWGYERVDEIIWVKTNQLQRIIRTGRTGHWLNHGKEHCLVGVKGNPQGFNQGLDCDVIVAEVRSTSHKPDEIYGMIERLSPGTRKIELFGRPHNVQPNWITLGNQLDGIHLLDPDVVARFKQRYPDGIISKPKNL

[4] = biological target: N6-adenosine-methyltransferase catalytic subunit (Homo sapiens) (UniProt Q86U44); assay: Inhibition of METTL3 in human Lenvatinib-resistant Huh7/Len cells assessed as effect on IFIT2 mRNA expression level at 2 uM incubated for 72 hrs by RT-PCR analysis; format: cell-based
[5] = system: Lenvatinib-resistant Hep3B/Len; assay: Antiproliferative activity against human Lenvatinib-resistant Hep3B/Len cells assessed as inhibition of cell viability up to 40 uM after 72 hrs by CCK-8 assay; format: functional, cell-based
[6] = biological target: N6-adenosine-methyltransferase catalytic subunit (Homo sapiens) (UniProt Q86U44); assay: Inhibition of METTL3 in human Lenvatinib-resistant Huh7/Len cells assessed as effect on SLC7A11 mRNA expression level at 2 uM incubated for 72 hrs by RT-PCR analysis; format: cell-based
[7] = system: Lenvatinib-resistant HCC/Len; assay: Antitumor activity against human Lenvatinib-resistant HCC/Len cells xenografted in BALB/c nude mouse model of PDX assessed as tumor growth inhibition at 1.5 mg/kg, ip cotreated with lenvatinib 5 times per week for 3 weeks; format: functional, organism-based
[8] = system: Lenvatinib-resistant Huh7/Len; assay: Inhibition of cell migration in human Lenvatinib-resistant Huh7/Len cells at 5 uM incubated for 48 hrs by transwell assay; format: functional, cell-based
[9] = system: Lenvatinib-resistant Huh7/Len; assay: Anticancer activity against human Lenvatinib-resistant Huh7/Len cells assessed as increase in m6A modification in terminator region by MeRIP-m6A -sequencing analysis; format: functional, cell-based
[10] = biological target: N6-adenosine-methyltransferase catalytic subunit (Homo sapiens) (UniProt Q86U44); assay: Binding affinity to METTL3 in human Huh-7 cells assessed as thermal stability at 44 to 64 degreeC at 2 uM incubated for 30 mins followed by […] analysis; format: cell-based
[11] = Toxicity in BALB/c nude mouse PDX model xenografted with human Lenvatinib-resistant HCC/Len cells assessed as changes in body weight at 1.5 mg/kg, ip administered 5 times per week for 3 weeks; format: organism-based; conditions: in vivo, 504 h
[12] = Toxicity in BALB/c nude mouse xenografted with human Lenvatinib-resistant Huh7/Len cells assessed as changes in body weight at 1.5 mg/kg, ip administered 5 times per week for 3 weeks; format: organism-based; conditions: in vivo, 504 h
[13] = system: Lenvatinib-resistant Huh7/Len; assay: Antiproliferative activity against human Lenvatinib-resistant Huh7/Len cells assessed as inhibition of clone formation ability at 5 uM preincubated for 72 hrs and measured after 7 to 10 days by crystal violet staining based assay; format: functional, cell-based; conditions: time 10-13 day
[14] = biological target: N6-adenosine-methyltransferase catalytic subunit (Homo sapiens) (UniProt Q86U44); assay: Inhibition of METTL3 in human Lenvatinib-resistant Huh7/Len cells assessed as effect on UCK2 mRNA expression level at 2 uM incubated for 72 hrs by RT-PCR analysis; format: cell-based
[15] = system: Lenvatinib-resistant HCC/Len; assay: Antitumor activity against human Lenvatinib-resistant HCC/Len cells xenografted in BALB/c nude mouse model of PDX assessed as inhibition of tumor volume at 1.5 mg/kg, ip cotreated with lenvatinib 5 times per week for 3 weeks; format: functional; conditions: 504 h
[16] = system: Lenvatinib-resistant Hep3B/Len; assay: Inhibition of cell migration in human Lenvatinib-resistant Hep3B/Len cells at 5 uM incubated for 48 hrs in presence of lenvatinib by transwell assay relative to control; format: functional
[17] = biological target: N6-adenosine-methyltransferase catalytic subunit (Homo sapiens) (UniProt Q86U44); assay: Inhibition of METTL3 in human Lenvatinib-resistant Huh7/Len cells assessed as effect on AKT1 mRNA expression level at 2 uM incubated for 72 hrs by RT-PCR analysis; format: cell-based
[18] = system: Lenvatinib-resistant Hep3B/Len; assay: Antiproliferative activity against human Lenvatinib-resistant Hep3B/Len cells assessed as inhibition of clone formation ability at 5 uM preincubated for 72 hrs and measured after 7 to 10 days in presence of lenvatinib by crystal violet staining based assay; format: functional, cell-based; conditions: time 10-13 day
[19] = biological target: N6-adenosine-methyltransferase catalytic subunit (Homo sapiens) (UniProt Q86U44); assay: Inhibition of METTL3 in human Lenvatinib-resistant Huh7/Len cells assessed as effect on GATA3 mRNA expression level at 2 uM incubated for 72 hrs by RT-PCR analysis; format: cell-based
[20] = biological target: N6-adenosine-methyltransferase catalytic subunit (Homo sapiens) (UniProt Q86U44); assay: Inhibition of METTL3 in human Lenvatinib-resistant Huh7/Len cells assessed as effect on CTSL mRNA expression level at 2 uM incubated for 72 hrs by RT-PCR analysis; format: cell-based
[21] = Toxicity in BALB/c nude mouse xenografted with human Lenvatinib-resistant Huh7/Len cells assessed as changes in organ index at 1.5 mg/kg, ip cotreated with lenvatinib 5 times per week for 3 weeks; format: organism-based; conditions: in vivo, 504 h
[22] = biological target: N6-adenosine-methyltransferase catalytic subunit (Homo sapiens) (UniProt Q86U44); assay: Inhibition of METTL3 in human Lenvatinib-resistant Huh7/Len cells assessed as effect on CRB3 mRNA expression level at 2 uM incubated for 72 hrs by RT-PCR analysis; format: cell-based
[23] = system: Lenvatinib-resistant Huh7/Len; assay: Antiproliferative activity against human Lenvatinib-resistant Huh7/Len cells assessed as inhibition of cell viability at 5 uM uM after 72 hrs in presence of lenvatinib by CCK-8 assay; format: functional, cell-based
[24] = system: Lenvatinib-resistant Huh7/Len; assay: Antitumor activity against human Lenvatinib-resistant Huh7/Len cells xenografted in BALB/c nude mouse assessed as reduction in METTL3 protein expression at 1.5 mg/kg, ip 5 times per week for 3 weeks by Western blot assay; format: functional, organism-based
[25] = system: Lenvatinib-resistant HCC/Len; assay: (§1) Antitumor activity against human Lenvatinib-resistant HCC/Len cells xenografted in BALB/c nude mouse model of PDX assessed as reduction in m6A expression in tumor tissue at 1.5 mg/kg, ip cotreated with lenvatinib 5 times per week for 3 weeks by immunohistochemistry analysis relative to control; format: functional, organism-based
[26] = system: Lenvatinib-resistant Hep3B/Len; assay: Antiproliferative activity against human Lenvatinib-resistant Hep3B/Len cells assessed as inhibition of clone formation ability at 5 uM preincubated for 72 hrs and measured after 7 to 10 days by crystal violet staining based assay; format: functional, cell-based; conditions: time 10-13 day
[27] = Toxicity in BALB/c nude mouse xenografted with human Lenvatinib-resistant Huh7/Len cells assessed as changes in body weight at 1.5 mg/kg, ip cotreated with lenvatinib 5 times per week for 3 weeks; format: organism-based; conditions: in vivo, 504 h
[28] = biological target: N6-adenosine-methyltransferase catalytic subunit (Homo sapiens) (UniProt Q86U44); assay: Inhibition of METTL3 in human Lenvatinib-resistant Huh7/Len cells assessed as effect on IFFO1 mRNA expression level at 2 uM incubated for 72 hrs by RT-PCR analysis; format: cell-based
[29] = Toxicity in BALB/c nude mouse xenografted with human Lenvatinib-resistant Huh7/Len cells assessed as changes in organ index at 1.5 mg/kg, ip administered 5 times per week for 3 weeks; format: organism-based; conditions: in vivo, 504 h
[30] = system: Lenvatinib-resistant HCC/Len; assay: as §1, with “Ki-67 protein” for “m6A”; format: functional, organism-based
[31] = Toxicity in BALB/c nude mouse PDX model xenografted with human Lenvatinib-resistant HCC/Len cells assessed as changes in organ index at 1.5 mg/kg, ip cotreated with lenvatinib 5 times per week for 3 weeks; format: organism-based; conditions: in vivo, 504 h

CN1[C@@H](CC(=O)c2ccccc2)CCC[C@H]1C[C@H](O)c1ccccc1 [LOBELINE]
Activity [1]: Active | Activity [2]: Active | inhibition [3]: Active | inhibition [4]: Active | inhibition [5]: Active | inhibition [6]: Active | TGI [7]: Active | inhibition [8]: inactive | Activity [9]: Active | Activity [10]: Active | Activity [11]: Non-Toxic | Activity [12]: Non-Toxic | inhibition [13]: inactive | inhibition [14]: Active | inhibition in vivo at 1.5 mg/kg [15]: 60% | inhibition at 5 µM [16]: 42% | inhibition [17]: Active | inhibition [18]: inactive | inhibition [19]: Active | inhibition [20]: Active | Activity [21]: Non-Toxic | inhibition [22]: Active | inhibition [23]: Active | Activity [24]: inactive | Activity [25]: Active | inhibition [26]: inactive | Activity [27]: Non-Toxic | inhibition [28]: Active | Activity [29]: Non-Toxic | Activity [30]: Active | Activity [31]: Non-Toxic
